Source: patent US20090285774A1, “Hepatitis C Virus Inhibitors” (Bristol-Myers Squibb Company, priority 2008, published 2009)
Where two headings read alike, the source gives them in different places.

Experiments:
[1] = target: T1, HCV NS3/4A protease complex, BMS strain (genotype 1a) (UniProt P27958, species not given/STRAIN_BMS); experiment: FRET peptide assay to monitor HCV NS3/4A proteolytic activity (BMS strain); type: biochemical
T1 construct: DNA encoding the recombinant HCV NS3/4A protease complex (amino acids 1027 to 1711) for these strains [given for H77 and J4L6S only]; These are given only for the H77 and J4L6S constructs
T1 sequence (P27958 1027-1657, stated change not applied, one chain of several): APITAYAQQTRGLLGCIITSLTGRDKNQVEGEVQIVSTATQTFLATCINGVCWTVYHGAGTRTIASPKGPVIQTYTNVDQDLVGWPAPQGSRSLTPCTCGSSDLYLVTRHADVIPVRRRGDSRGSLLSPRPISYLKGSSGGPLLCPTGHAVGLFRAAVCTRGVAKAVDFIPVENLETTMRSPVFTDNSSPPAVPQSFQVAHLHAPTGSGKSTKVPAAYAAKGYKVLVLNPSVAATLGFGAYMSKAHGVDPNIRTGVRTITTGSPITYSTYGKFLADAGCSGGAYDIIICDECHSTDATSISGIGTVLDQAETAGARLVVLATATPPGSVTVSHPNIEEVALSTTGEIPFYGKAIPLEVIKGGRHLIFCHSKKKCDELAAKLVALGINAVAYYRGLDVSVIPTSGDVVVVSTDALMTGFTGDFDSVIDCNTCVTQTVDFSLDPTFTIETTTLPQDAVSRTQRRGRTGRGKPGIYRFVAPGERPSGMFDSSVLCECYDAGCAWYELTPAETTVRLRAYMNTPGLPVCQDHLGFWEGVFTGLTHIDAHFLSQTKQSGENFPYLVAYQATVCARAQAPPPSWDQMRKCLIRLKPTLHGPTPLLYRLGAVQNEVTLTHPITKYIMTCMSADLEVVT
Excerpt: (§1) HCV NS3 protease complexes, derived from the BMS strain, H77 strain or J4L6S strain, were generated, as described below. These purified recombinant proteins were generated for use in a homogeneous assay (see below) to provide an indication of how effective compounds of the present disclosure would be in inhibiting HCV NS3 proteolytic activity.
Serum from an HCV-infected patient was obtained from Dr. T. Wright, San Francisco Hospital. An engineered full-length cDNA (compliment deoxyribonucleic acid) template of the HCV genome (BMS strain) was constructed from DNA fragments obtained by reverse transcription-PCR (RT-PCR) of serum RNA (ribonucleic acid) and using primers selected on the basis of homology between other genotype 1a strains. From the determination of the entire genome sequence, a genotype 1a was assigned to the HCV isolate according to the classification of Simmonds et al. (See P Simmonds, K A Rose, S Graham, S W Chan, F McOmish, B C Dow, E A Follett, P L Yap and H Marsdeni, J. Clin. Microbiol., 31(6):1493-1503 (1993)). […] The infectious clones, H77 (1a genotype) and J4L6S (1b genotype) were obtained from R. Purcell (NIH) and the sequences are published in Genbank (AAB67036, see Yanagi, M., Purcell, R. H., Emerson, S. U. and Bukh, J. Proc. Natl. Acad. Sci. U.S.A. 94(16):8738-8743 (1997); AF054247, see Yanagi, M., St Claire, M., Shapiro, M., Emerson, S. U., Purcell, R. H. and Bukh, J, Virology 244 (1), 161-172. (1998)).
The H77 and J4L6S strains were used for production of recombinant NS3/4A protease complexes. DNA encoding the recombinant HCV NS3/4A protease complex (amino acids 1027 to 1711) for these strains were manipulated as described by P. Gallinari et al. (see Gallinari P, Paolini C, Breruian D, Nardi C, Steinlkuhler C, De Francesco R. Biochemistry. 38(17);5620-32, (1999)). Briefly, a three-lysine solubilizing tail was added at the 3′-end of the NS4A coding region. The cysteine in the P1 position of the NS4A-NS4B cleavage site (amino acid 1711) was changed to a glycine to avoid the proteolytic cleavage of the lysine tag. Furthermore, a cysteine to serine mutation was introduced by PCR at amino acid position 1454 to prevent the autolytic cleavage in the NS3 helicase domain. The variant DNA fragment was cloned in the pET21b bacterial expression vector (Novagen) and the NS3/4A complex was expressed in Escherichia. coli strain BL21 (DE3) (Invitrogen) following the protocol described by P. Gallinari et al. (see Gallinari P, Breinan D, Nardi C, Brunetti M, Tomei L, Steinkuhler C, De Francesco R., J Virol. 72(8):6758-69 (1998)) with modifications. Briefly, the NS3/4A protease complex expression was induced with 0.5 millimolar (mM) Isopropyl β-D-1-thiogalactopyranoside (IPTG) for 22 hours (h) at 20° C. A typical fermentation (1 Liter (L)) yielded approximately 10 grams (g) of wet cell paste. The cells were resuspended in lysis buffer (10 mL/g) consisting of 25 mM N-(2-Hydroxyethyl)Piperazine-N′-(2-Ethane Sulfonic acid) (HEPES), pH 7.5, 20% glycerol, 500 mM Sodium Chloride (NaCl), 0.5% Triton X-100, 1 microgram/milliliter (“μg/mL”) lysozyme, 5 mM Magnesium Chloride (MgCl2), 1 μg/ml DnaseI, 5mM β-Mercaptoethanol (βME), Protease inhibitor-Ethylenediamine Tetraacetic acid (EDTA) free (Roche), homogenized and incubated for 20 minutes (min) at 4° C. The homogenate was sonicated and clarified by ultra-centrifugation at 235000 g for 1 hour (h) at 4° C. Imidazole was added to the supernatant to a final concentration of 15 mM and the pH adjusted to 8.0. The crude protein extract was loaded on a Nickel-Nitrilotriacetic acid (Ni-NTA) column pre-equilibrated with buffer B (25 mM HEPES, pH 8.0, 20% glycerol, 500 mM NaCl, 0.5% Triton X-100, 15 mM imidazole, 5 mM βMB). The sample was loaded at a flow rate of 1 mL/min. The column was washed with 15 column volumes of buffer C (same as buffer B except with 0.2% Triton X-100). The protein was eluted with 5 column volumes of buffer D (same as buffer C except with 200 mM Imidazole). […]

[2] = system: HCV replicon (strain 1b) in HUH-7 cells; experiment: HCV replicon FRET assay; type: cell-based; conditions: Hepatitis C virus
Excerpt: An HCV replicon whole cell system was established as described by Lohmann V, Korner F, Koch J, Herian U, Theilmann L, Bartenschlager R., Science 285(5424):110-3 (1999). This system enabled us to evaluate the effects of our HCV Protease compounds on HCV RNA replication. Briefly, using the HCV strain 1b sequence described in the Lohmann paper (Assession number: AJ238799), an HCV cDNA was synthesized by Operon Technologies, Inc. (Alameda, Calif.), and the full-length replicon was then assembled in plasmid pGem9zf(+) (Promega, Madison, Wis.) using standard molecular biology techniques. The replicon consists of (i) the HCV 5′ UTR fused to the first 12 amino acids of the capsid protein, (ii) the neomycin phosphotransferase gene (neo), (iii) the IRES from encephalomyocarditis virus (EMCV), and (iv) HCV NS3 to NS5B genes and the HCV 3′ UTR. Plasmid DNAs were linearized with ScaI and RNA transcripts were synthesized in vitro using the T7 MegaScript transcription kit (Aibion, Austin, Tex.) according to manufacturer's directions. In vitro transcripts of the cDNA were transfected into the human hepatoma cell line, HUH-7. […] Resulting cell lines were characterized for positive and negative strand RNA production and protein production over time.
The HCV replicon FRET assay was developed to monitor the inhibitory effects of compounds described in the disclosure on NCV viral replication. HUH-7 cells, constitutively expressing the HCV replicon, were grown in Dulbecco's Modified Eagle Media (DMEM) (Gibco-BRL) containing 10% Fetal calf serum (FCS) (Sigma) and 1 mg/ml G418 (Gibco-BRL). Cells were seeded the night before (1.5×10^4 cells/well) in 96-well tissue-culture sterile plates. Compound and no compound controls were prepared in DMEM containing 4% FCS, 1:100 Penicillin/Streptomysin (Gibco-BRL), 1:100 L-glutamine and 5% DMSO in the dilution plate (0.5% DMSO final concentration in the assay). Compound/DMSO mixes were added to the cells and incubated for 4 days at 37° C. After 4 days, cells were first assessed for cytotoxicity using alamar Blue (Trek Diagnotstic Systems) for a CC50 reading. The toxicity of compound (CC50) was determined by adding 1/10th volume of alamar Blue to the media incubating the cells. After 4 h, the fluorescence signal from each well was read, with an excitation wavelength at 530 nm and an emission wavelength of 580 nm, using the Cytofluor Series 4000 (Perspective Biosystems). Plates were then rinsed thoroughly with Phosphate-Buffered Saline (PBS) (3 times 150 μl).

[3] = target: T2, HCV NS3/4A protease complex, H77 strain (1a genotype) (Hepatitis C virus genotype 1a, UniProt P27958, C1454S/C1711G); experiment: FRET peptide assay to monitor HCV NS3/4A proteolytic activity (H77 strain); type: biochemical
T2 construct: DNA encoding the recombinant HCV NS3/4A protease complex (amino acids 1027 to 1711) for these strains; inferred from pET21b vector and Ni-NTA purification; made in house; host or cells: Escherichia coli BL21 (DE3), pET21b
T2 sequence (P27958 1027-1711 C1454S/C1711G, one chain of several): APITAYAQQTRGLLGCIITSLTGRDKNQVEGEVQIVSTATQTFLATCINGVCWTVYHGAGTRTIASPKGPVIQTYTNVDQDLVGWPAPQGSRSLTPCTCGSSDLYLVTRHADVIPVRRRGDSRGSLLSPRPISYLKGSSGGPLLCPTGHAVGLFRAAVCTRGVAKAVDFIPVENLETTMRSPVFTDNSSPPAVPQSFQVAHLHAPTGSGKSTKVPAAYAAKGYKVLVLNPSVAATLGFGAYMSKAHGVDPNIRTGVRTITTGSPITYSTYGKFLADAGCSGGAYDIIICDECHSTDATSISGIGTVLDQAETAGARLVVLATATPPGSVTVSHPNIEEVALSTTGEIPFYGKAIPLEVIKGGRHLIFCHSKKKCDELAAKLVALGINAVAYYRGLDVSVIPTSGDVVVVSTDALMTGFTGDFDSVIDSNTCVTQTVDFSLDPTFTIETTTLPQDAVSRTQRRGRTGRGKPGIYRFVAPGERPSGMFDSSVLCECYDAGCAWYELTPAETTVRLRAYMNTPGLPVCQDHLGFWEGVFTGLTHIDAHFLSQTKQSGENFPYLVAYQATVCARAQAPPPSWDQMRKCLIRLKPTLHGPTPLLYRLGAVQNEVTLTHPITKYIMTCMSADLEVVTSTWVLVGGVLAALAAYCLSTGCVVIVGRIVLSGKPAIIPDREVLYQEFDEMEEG
Excerpt: as §1
(§2) Serum from an HCV-infected patient was obtained from Dr. T. Wright, San Francisco Hospital. An engineered full-length cDNA (compliment deoxyribonucleic acid) template of the HCV genome (BMS strain) was constructed from DNA fragments obtained by reverse transcription-PCR (RT-PCR) of serum RNA (ribonucleic acid) and using primers selected on the basis of homology between other genotype 1a strains. From the determination of the entire genome sequence, a genotype 1a was assigned to the HCV isolate according to the classification of Simmonds et al. (See P Simmonds, K A Rose, S Graham, S W Chan, F McOmish, B C Dow, E A Follett, P L Yap and H Marsdeni, J. Clin. Microbiol., 31(6):1493-1503 (1993)). […]

[4] = target: T3, HCV NS3/4A protease complex, J4L6S strain (1b genotype) (Hepatitis C virus genotype 1b, UniProt O92972, C1454S/C1711G); experiment: FRET peptide assay to monitor HCV NS3/4A proteolytic activity (J4L6S strain); type: biochemical
T3 construct: DNA encoding the recombinant HCV NS3/4A protease complex (amino acids 1027 to 1711) for these strains; inferred from pET21b vector and Ni-NTA purification; made in house; host or cells: Escherichia coli BL21 (DE3), pET21b
T3 sequence (O92972 1027-1711 C1454S/C1711G, one chain of several): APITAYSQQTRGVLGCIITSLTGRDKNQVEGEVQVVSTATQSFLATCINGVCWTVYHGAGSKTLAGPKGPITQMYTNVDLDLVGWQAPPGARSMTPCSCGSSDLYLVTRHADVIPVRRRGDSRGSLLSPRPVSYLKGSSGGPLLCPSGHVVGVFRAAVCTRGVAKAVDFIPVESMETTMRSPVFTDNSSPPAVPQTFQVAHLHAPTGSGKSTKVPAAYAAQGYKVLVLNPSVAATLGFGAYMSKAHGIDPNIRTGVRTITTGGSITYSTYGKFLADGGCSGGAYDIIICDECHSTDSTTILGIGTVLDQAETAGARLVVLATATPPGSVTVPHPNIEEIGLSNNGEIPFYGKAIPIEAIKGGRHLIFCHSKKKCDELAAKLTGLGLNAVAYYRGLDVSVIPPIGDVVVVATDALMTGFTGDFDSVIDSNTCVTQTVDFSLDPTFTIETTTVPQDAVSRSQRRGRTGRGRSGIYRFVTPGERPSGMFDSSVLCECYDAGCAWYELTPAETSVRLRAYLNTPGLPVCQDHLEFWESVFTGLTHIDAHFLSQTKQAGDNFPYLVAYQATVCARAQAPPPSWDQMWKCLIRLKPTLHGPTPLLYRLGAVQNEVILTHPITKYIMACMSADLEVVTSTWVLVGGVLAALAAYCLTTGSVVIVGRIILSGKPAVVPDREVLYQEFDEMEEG
Excerpt: as §1, §2

[5] = target: T4, human neutrophil elastase (HNE) (Homo sapiens, UniProt P08246); experiment: Specificity assay, human neutrophil elastase; type: biochemical; conditions: read-out: HLE activity in the specificity assays (IC50)
T4 sequence (P08246 30-267): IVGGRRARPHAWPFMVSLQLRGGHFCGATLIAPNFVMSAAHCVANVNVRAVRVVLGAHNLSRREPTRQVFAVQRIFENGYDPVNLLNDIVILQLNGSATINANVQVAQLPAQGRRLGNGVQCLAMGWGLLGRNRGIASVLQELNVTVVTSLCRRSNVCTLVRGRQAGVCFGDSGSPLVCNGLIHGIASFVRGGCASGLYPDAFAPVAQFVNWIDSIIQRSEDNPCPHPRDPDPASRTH
Procedure: (§3) The specificities of compounds of the present disclosure were determined against a variety of serine proteases: human neutrophil elastase (HNE), porcine pancreatic elastase (PPE) and human pancreatic chymotrypsin and one cysteine protease: human liver cathepsin B. In all cases a 96-well plate format protocol using a fluorometric Amino-Methyl-Coumarin (AMC) substrate specific for each enzyme was used as described previously (PCT Patent Application No. WO 00/09543) with some modifications to the serine protease assays. All enzymes were purchased from Sigma, EMDbiosciences while the substrates were from Bachem, Sigma and EMDbiosciences.
(§4) Compound concentrations varied from 100 to 0.4 μM depending on their potency. The enzyme assays were each initiated by addition of substrate to enzyme-inhibitor pre-incubated for 10 min at room temperature and hydrolysis to 15% conversion as measured on cytofluor. […]
(§5) The percentage of inhibition was calculated using the formula: […]

[6] = target: porcine pancreatic elastase (PPE) (Sus scrofa, UniProt P00772); experiment: Specificity assay, porcine pancreatic elastase; type: biochemical; conditions: read-out: PPE activity in the specificity assays (IC50)
Sequence of porcine pancreatic elastase (PPE) (P00772 27-266): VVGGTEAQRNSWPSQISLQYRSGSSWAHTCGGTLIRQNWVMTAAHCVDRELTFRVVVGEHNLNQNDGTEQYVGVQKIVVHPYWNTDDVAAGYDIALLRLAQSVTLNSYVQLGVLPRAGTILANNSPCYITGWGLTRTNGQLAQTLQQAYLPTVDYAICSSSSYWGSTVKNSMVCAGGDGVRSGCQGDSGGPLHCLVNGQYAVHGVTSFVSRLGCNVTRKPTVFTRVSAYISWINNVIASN
Procedure: as §3, §4, §5

[7] = system: human pancreatic chymotrypsin; experiment: Specificity assay, chymotrypsin; type: biochemical; conditions: read-out: Chymotrypsin activity in the specificity assays (IC50)
Procedure: as §3, §4, §5

[8] = target: T5, human liver cathepsin B (Homo sapiens, UniProt P07858); experiment: Specificity assay, cathepsin B; type: biochemical; conditions: read-out: Cathepsin B activity in the specificity assays (IC50)
T5 construct: host or cells: human liver (from the name)
Procedure: as §3, §4, §5

[9] = NS3/4A BMS strain, value, read-out: IC50 (range or value)
[10] = Huh-7, HCV replicon, value, read-out: EC50 (range or value)
[11] = NS3/4A BMS strain, activity range, read-out: IC50 (range or value)
[12] = Huh-7, HCV replicon, activity range, read-out: EC50 (range or value)

## C=C[C@@H]1C[C@]1(NC(=O)C1CC(Oc2cc(-c3ccccc3)nc3cc(OC)ccc23)CN1C(=O)[C@@H](Nc1nc(CC)cs1)C(C)(C)C)C(=O)NS(=O)(=O)C1CC1 (stereo partly shown) [Compound 3]
[1]; [9]
  IC50: 4.55 nM
[2]; [10]
  EC50: 14.6 nM

## C=C[C@@H]1C[C@]1(NC(=O)C1CC(Oc2cc(-c3ccccc3)nc3cc(OC)ccc23)CN1C(=O)[C@@H](Nc1nc(C(C)(C)C)cs1)C(C)(C)C)C(=O)NS(=O)(=O)C1CC1 (stereo partly shown) [Compound 4]
[1]; [11]
  IC50: 4 to 20 nM
[2]; [12]
  EC50: 14 to 100 nM

## C=C[C@@H]1C[C@]1(NC(=O)[C@@H]1C[C@@H](OC(=O)N2Cc3cccc(F)c3C2)CN1C(=O)C(Nc1cc(C)cc(C)n1)C(C)C)C(=O)NS(=O)(=O)C1CC1 (single isomer, unassigned) [Compound 2A]
[1]; BMS strain, read-out: IC50 against the NS3/4A BMS strain in the enzyme assay
  IC50: 8.9 nM
[1]; [11]
  IC50: 4 to 20 nM
[3]
  IC50: 1.4 nM
[4]
  IC50: 1.2 nM
[2]; [12]
  EC50: 14 to 100 nM
[2]; Huh-7, replicon FRET assay, read-out: EC50 value in the replicon FRET assay
  EC50: 69 nM
[5]
  IC50: 4600 nM
[6]
  IC50: > 100000 nM
[7]
  IC50: 2100 nM
[8]
  IC50: > 100000 nM

## C=C[C@@H]1C[C@]1(NC(=O)[C@@H]1C[C@@H](Oc2cc(-c3cccs3)cc(-c3ccccc3)n2)CN1C(=O)C(Nc1cc(C)cc(C)n1)C(C)C)C(=O)NS(=O)(=O)C1CC1 (single isomer, unassigned) [Compound 1B]
[1]; [11]
  IC50: 20 to 200 nM
[2]; [12]
  EC50: 100 to 1000 nM

## C=C[C@@H]1C[C@]1(NC(=O)[C@@H]1C[C@@H](Oc2cc(-c3cccs3)cc(-c3ccccc3)n2)CN1C(=O)C(Nc1cc(C)cc(C)n1)C(C)C)C(=O)NS(=O)(=O)C1CC1 (single isomer, unassigned) [Compound 1A]
[1]; [9]
  IC50: 14 nM
[2]; [10]
  EC50: 65.3 nM

## C=C[C@@H]1C[C@]1(NC(=O)[C@@H]1C[C@@H](OC(=O)N2Cc3cccc(F)c3C2)CN1C(=O)C(Nc1cc(C)cc(C)n1)C(C)C)C(=O)NS(=O)(=O)C1CC1 (single isomer, unassigned) [Compound 2B]
[1]; [9]
  IC50: 135 nM
[2]; [10]
  EC50: 3480 nM

## C=C[C@@H]1C[C@]1(NC(=O)C1CC(Oc2cc(-c3ccccc3)nc3cc(OC)ccc23)CN1C(=O)[C@@H](Nc1nc(C(F)(F)F)cs1)C(C)(C)C)C(=O)NS(=O)(=O)C1CC1 (stereo partly shown) [Compound 5]
[1]; [11]
  IC50: 4 to 20 nM
[2]; [12]
  EC50: 14 to 100 nM
